Data as given in publication PMC11167047 (Cell Death Discovery, 2024).

Assays:
CDK1/cyclin B1 = target: T1, CDK1/cyclin B1 (Homo sapiens, UniProt P06493); experiment: luminescence-based kinase activity assay; type: biochemical; conditions: result in words
T1 construct: purchased BPS Bioscience #79597
Method: (§1) The activity of specific CDKs and their cyclins was assessed using CDK Kits from BPS Bioscience (CDK1/cyclin B1 #79597; CDK2/cyclin A2 #79599; CDK9/cyclin T #79628). The assay was conducted following the manufacturer’s guidelines. In summary, the CDK/cyclin complexes, as purified recombinant enzymes, were allowed to react with CDK substrate peptide, ATP, and kinase buffer in the presence or absence of meriolins. The reaction was initiated by adding diluted CDK/cyclin enzyme to the wells and incubating for 45 min at 30 °C. After the incubation, the Kinase-Glo-Max® reagent was added as a detection reagent, and the resulting luciferase reaction produced luminescence, which was inversely correlated with the kinase activity.
(§2) The luminescent CDK/cyclin assay is a method that quantifies the amount of ATP remaining in the solution after a kinase reaction. Luminescence was measured using the Synergy Mix microplate reader as an endpoint measurement. Data analyses were performed according to the manufacturer’s instructions, and statistical analysis was carried out using one-way ANOVA, with corrections made by Bonferroni’s multiple comparison test. The significance level was indicated as ****p ≤ 0.0001.

CDK2/cyclin A2 = target: T2, CDK2/cyclin A2 (Homo sapiens, UniProt P24941); experiment: luminescence-based kinase activity assay; type: biochemical; conditions: result in words
T2 construct: purchased BPS Bioscience #79599
Method: as §1, §2

CDK9/cyclin T = target: T3, CDK9/cyclin T (Homo sapiens, UniProt P50750); experiment: luminescence-based kinase activity assay; type: biochemical; conditions: result in words
T3 construct: purchased BPS Bioscience #79628
T3 sequence (P50750 whole entry): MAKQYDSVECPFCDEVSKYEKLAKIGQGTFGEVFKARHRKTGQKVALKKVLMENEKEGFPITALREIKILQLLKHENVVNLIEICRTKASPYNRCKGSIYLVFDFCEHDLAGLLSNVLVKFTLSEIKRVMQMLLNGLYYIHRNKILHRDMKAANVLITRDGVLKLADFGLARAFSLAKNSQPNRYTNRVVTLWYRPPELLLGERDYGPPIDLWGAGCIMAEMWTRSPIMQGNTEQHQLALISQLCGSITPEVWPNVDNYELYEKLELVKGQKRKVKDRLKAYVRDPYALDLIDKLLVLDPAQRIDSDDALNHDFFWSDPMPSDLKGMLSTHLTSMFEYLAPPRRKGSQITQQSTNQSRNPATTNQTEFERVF
T3 sequence (O60563 whole entry partner): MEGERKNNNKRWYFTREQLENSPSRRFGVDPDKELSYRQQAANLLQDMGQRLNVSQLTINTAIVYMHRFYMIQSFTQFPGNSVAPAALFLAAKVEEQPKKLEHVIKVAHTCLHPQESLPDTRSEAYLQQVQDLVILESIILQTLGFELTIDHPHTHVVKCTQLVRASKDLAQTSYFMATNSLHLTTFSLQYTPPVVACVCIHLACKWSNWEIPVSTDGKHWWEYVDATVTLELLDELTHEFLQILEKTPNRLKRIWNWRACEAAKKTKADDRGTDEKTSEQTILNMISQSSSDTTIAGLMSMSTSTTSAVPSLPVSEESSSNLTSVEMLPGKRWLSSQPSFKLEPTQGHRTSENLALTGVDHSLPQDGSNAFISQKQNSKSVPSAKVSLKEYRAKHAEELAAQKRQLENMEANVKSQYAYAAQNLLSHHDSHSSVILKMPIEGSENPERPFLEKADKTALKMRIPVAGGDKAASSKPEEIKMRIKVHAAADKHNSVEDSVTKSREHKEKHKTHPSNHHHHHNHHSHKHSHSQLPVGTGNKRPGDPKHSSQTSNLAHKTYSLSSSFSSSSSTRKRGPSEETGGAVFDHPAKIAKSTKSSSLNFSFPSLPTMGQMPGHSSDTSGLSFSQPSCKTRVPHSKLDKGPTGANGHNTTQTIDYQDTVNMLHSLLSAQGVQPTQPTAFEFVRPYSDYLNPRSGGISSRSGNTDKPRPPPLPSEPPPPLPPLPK
Method: as §1, §2

[1] = tested on: CDK9 and cyclin T1 protein levels; experiment: immunoblotting of CDK9 and cyclin T1 in Ramos cells; type: cell-based, human; conditions: 0.1 and 1 µM, 4-24 h
Method: (§3) Cells were seeded at a density of 2 × 10^6 cells, treated as specified and harvested by centrifugation at 3000 rpm for 5 min, followed by freezing in liquid nitrogen. The cell pellets were thawed on ice and quick-frozen and defrozen in liquid nitrogen for three times, then lysed on ice in lysis buffer (20 mM Tris-HCl, 150 mM NaCl, 1% v/v Triton X-100, 0.5 mM EDTA, 10 mM NaF, 2.5 mM Na4P2O7, protease inhibitor (Sigma, #P2714)) for 30 min, accompanied by vortexing. Subsequently, centrifugation 13,300 rpm for 15 min purified cell lysates from cell debris. The supernatant was transferred to a new tube and the protein concentration was determined by Bradford assay. The samples were diluted with sample buffer. SDS-Page and Western Blot were conducted in accordance with standard workflows. […] The antibody baths were stored at 4 °C and re-used.
(§4) The density of the individual protein band was determined using Image Studio^TM Lite Version 5.2. The density of each protein was divided by the average of all bands of this protein. The ratios of the protein of interest were normalized to the ratio of the respective loading control. To determine the fold change, each normalized ratio was divided by the normalized band of the control line (untreated cells). Fold change is 1 for the control line, n ≥ 2. The results are shown as mean ± standard deviation and were visualized with GraphPad Prism 7.

cyclin B1 expression = experiment: immunoblotting of cyclin B1 in Ramos cells; type: cell-based, human; conditions: 24 h
Method: as §3, §4

ITK = target: T4, ITK (Homo sapiens, UniProt Q08881); experiment: kinome screen (33PanQinase); type: biochemical
T4 construct: purchased Reaction Biology Europe GmbH (formerly ProQinase)
T4 sequence (Q08881 1-620): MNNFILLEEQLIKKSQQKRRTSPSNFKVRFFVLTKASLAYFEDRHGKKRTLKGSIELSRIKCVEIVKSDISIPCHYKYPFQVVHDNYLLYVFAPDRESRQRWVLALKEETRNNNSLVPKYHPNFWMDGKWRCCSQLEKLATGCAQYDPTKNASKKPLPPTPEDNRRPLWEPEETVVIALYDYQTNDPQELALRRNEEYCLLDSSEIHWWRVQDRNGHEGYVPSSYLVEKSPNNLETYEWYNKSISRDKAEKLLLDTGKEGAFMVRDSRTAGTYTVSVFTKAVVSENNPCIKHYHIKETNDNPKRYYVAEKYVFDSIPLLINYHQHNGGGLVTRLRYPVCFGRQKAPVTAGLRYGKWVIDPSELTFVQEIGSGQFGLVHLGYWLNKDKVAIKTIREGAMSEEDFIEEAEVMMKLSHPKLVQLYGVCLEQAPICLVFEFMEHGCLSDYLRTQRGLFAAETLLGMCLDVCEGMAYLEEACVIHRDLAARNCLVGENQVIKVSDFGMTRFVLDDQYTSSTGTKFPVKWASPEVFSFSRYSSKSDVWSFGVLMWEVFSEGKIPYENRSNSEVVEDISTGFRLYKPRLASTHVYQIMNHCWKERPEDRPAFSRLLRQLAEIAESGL
Method: (§5) The Kinome Screening was performed by Reaction Biology Europe GmbH (http://reactionbiology.com; Freiburg i. Br., Germany).

PKMzeta = target: T5, PKMzeta (Homo sapiens, UniProt Q05513); experiment: kinome screen (33PanQinase); type: biochemical
T5 construct: PKMzeta; purchased Reaction Biology Europe GmbH (formerly ProQinase)
T5 sequence (Q05513 184-592 limits assumed): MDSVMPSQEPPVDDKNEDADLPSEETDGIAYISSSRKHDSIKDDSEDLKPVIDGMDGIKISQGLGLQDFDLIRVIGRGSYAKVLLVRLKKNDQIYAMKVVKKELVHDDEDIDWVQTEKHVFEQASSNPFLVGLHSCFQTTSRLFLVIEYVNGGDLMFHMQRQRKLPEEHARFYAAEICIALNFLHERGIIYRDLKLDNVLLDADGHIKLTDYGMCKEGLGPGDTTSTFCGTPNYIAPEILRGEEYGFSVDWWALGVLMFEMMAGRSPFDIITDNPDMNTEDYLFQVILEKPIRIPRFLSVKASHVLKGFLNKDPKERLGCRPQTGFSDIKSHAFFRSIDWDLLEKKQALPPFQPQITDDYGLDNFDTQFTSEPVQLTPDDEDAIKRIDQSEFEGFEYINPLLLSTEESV
Method: as §5

TYK2 = target: T6, TYK2 (Homo sapiens, UniProt P29597); experiment: kinome screen (33PanQinase); type: biochemical
T6 construct: purchased Reaction Biology Europe GmbH (formerly ProQinase)
T6 sequence (P29597 whole entry): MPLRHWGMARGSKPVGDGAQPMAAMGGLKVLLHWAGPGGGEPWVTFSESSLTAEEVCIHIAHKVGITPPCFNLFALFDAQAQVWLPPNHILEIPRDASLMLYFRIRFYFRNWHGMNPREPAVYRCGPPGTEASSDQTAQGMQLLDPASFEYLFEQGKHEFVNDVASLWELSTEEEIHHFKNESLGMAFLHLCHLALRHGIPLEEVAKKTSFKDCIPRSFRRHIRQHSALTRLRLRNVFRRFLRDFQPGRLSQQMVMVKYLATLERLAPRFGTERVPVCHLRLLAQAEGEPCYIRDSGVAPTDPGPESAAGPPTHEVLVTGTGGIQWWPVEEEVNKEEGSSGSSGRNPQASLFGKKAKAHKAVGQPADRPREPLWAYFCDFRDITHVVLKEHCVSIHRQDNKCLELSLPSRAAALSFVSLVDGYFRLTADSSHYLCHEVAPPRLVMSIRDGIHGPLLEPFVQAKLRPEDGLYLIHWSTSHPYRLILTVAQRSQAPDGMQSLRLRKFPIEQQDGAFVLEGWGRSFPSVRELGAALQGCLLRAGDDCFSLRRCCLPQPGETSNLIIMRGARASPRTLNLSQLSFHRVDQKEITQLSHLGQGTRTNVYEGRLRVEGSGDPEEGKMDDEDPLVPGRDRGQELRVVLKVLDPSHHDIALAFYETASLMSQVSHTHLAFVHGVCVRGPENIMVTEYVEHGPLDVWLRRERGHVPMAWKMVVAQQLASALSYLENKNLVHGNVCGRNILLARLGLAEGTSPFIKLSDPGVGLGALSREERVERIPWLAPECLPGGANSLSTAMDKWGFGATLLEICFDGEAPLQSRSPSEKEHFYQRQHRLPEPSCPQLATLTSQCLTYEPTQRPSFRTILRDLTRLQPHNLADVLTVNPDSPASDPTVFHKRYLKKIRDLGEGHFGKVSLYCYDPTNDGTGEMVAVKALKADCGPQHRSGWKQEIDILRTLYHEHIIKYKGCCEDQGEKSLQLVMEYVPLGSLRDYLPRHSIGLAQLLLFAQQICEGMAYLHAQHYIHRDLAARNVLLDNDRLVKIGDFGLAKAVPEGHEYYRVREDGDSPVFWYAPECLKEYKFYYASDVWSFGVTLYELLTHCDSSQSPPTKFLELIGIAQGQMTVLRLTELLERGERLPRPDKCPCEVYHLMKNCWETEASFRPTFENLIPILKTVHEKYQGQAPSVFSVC
Method: as §5

SUPB15 = conditions: read-out: IC50 (SUPB15); cytotoxicity, 24 h
Method: The resazurin reduction assay, which is also known as AlamarBlue® assay, was used for the determination of cell viability in all cytotoxicity determinations shown in the present work, as previously described [22]. Briefly, cells were seeded at a specific density depending on the incubation time (24 h: 1 × 10^6 cells/ml) in a 96-well plate and incubated with increasing compound concentrations (0.01–30 µM). After the specified treatment time, resazurin (Sigma, #R7017) was added to a final concentration of 40 µM. […] The viability of control cells was set to 100% and all other values were normalized to the control condition, the dose-response curves were then fitted with Prism v7.01 (GraphPad software, La Jolla, CA, USA). The reduction of resazurin to resorufin is proportional to aerobic respiration; therefore, it is used as a measure for the cell viability and cytotoxicity of a tested compound.

[2] = tested on: CLL68 chronic lymphocytic leukemia cells; conditions: read-out: IC50 (CLL68); primary patient cells, 24 h
Description: (§6) For chronic lymphocytic leukemia, mononuclear cells were isolated from peripheral blood using a Ficoll gradient (GE Healthcare). Primary cells from other lymphoma entities were isolated as previously described [80]. All cells were cryopreserved after isolation and thawed as previously described [81].
(§7) The resazurin reduction assay, which is also known as AlamarBlue® assay, was used for the determination of cell viability in all cytotoxicity determinations shown in the present work, as previously described [22]. Briefly, cells were seeded at a specific density depending on the incubation time (24 h: 1 × 10^6 cells/ml) in a 96-well plate and incubated with increasing compound concentrations (0.01–30 µM). After the specified treatment time, resazurin (Sigma, #R7017) was added to a final concentration of 40 µM. […] The viability of control cells was set to 100% and all other values were normalized to the control condition, the dose-response curves were then fitted with Prism v7.01 (GraphPad software, La Jolla, CA, USA).

[3] = tested on: DLBCL177 diffuse large B cell lymphoma cells; conditions: read-out: IC50 (DLBCL177); primary patient cells, 24 h
Description: as §6, §7

[4] = tested on: FL100 follicular lymphoma cells; conditions: read-out: IC50 (FL100); primary patient cells, 24 h
Description: as §6, §7

T1 sequence (P06493 whole entry): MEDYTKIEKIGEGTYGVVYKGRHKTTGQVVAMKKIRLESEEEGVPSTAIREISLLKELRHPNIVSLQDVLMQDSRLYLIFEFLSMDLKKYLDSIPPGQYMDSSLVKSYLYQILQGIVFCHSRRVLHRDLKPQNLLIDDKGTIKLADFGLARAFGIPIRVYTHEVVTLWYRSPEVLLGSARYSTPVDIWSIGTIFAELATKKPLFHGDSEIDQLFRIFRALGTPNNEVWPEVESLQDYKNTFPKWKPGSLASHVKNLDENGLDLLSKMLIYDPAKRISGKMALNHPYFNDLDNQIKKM
T1 sequence (P14635 whole entry partner): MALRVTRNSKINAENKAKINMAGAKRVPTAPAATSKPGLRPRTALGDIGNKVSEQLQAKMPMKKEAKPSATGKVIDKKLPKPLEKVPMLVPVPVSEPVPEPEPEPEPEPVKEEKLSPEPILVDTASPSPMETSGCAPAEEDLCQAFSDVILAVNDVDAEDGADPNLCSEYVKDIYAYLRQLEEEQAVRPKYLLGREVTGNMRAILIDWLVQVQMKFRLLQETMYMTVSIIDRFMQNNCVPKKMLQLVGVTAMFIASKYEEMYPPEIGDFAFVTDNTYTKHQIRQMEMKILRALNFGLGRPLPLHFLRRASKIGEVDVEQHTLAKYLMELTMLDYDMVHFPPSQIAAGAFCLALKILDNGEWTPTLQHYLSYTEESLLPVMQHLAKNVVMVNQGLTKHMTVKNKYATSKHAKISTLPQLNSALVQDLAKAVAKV

| Compound | inhibition of CDK1/cyclin B1 (CDK1/cyclin B1) | inhibition of CDK2/cyclin A2 (CDK2/cyclin A2) | inhibition of CDK9/cyclin T (CDK9/cyclin T) | CDK9 and cyclin T1 protein levels [1] | expression of cyclin B1 (cyclin B1 expression) | residual kinase activity (ITK; 0.03 µM) | residual kinase activity (ITK; 0.3 µM) | residual kinase activity (PKMzeta; 0.03 µM) | residual kinase activity (PKMzeta; 0.3 µM) | residual kinase activity (TYK2; 0.03 µM) | residual kinase activity (TYK2; 0.3 µM) | IC50 (SUPB15) [nM] | IC50 [2] [nM] | IC50 [3] [nM] | IC50 [4] [nM] | residual kinase activity (ITK; 3 µM) | residual kinase activity (PKMzeta; 3 µM) | residual kinase activity (TYK2; 3 µM) |
| --- | --- | --- | --- | --- | --- | --- | --- | --- | --- | --- | --- | --- | --- | --- | --- | --- | --- | --- |
| COc1ccnc2[nH]cc(-c3cc(N)nc(N)c3)c12 [meriolin 16] | inhibited | inhibited | inhibited | decrease | reduced the expression of cyclin B1 | 105 % of control | 88 % of control | 97 % of control | 90 % of control | 105 % of control | 68 % of control | 20 | 60 | 80 | 60 |  |  |  |
| c1ccc(CNc2cc(-c3c[nH]c4ncccc34)ccn2)cc1 [meriolin 36] | inhibited | inhibited | inhibited | relatively stable | rather increased the expression of cyclin B1 |  | 77 % of control |  | 89 % of control |  | 6 % of control | 1650 | 420 | 50 | 90 | 16 % of control | 68 % of control | 1 % of control |
